Experimental data as given in US9790169B2, “IDO inhibitors” (BRISTOL-MYERS SQUIBB COMPANY, priority 2015, dated 2017).

Target: human IDO1 (Homo sapiens, UniProt P14902)
Assay: Assessment of human IDO-1 inhibitory activity in HEK cells (human IDO1/HEK293 cells, kynurenine read-out with Ehrlich reagent, absorbance 490 nm)
Assay type: cell-based
Set-up: expressed in transfected cells
Conditions: HEK Human IDO-1 cellular assay
Experimental: Exemplary compounds were tested for inhibition of IDO activity.
Assessment of Human IDO-1 Inhibitory Activity in HEK Cells
HEK293 cells were transfected with a pCDNA-based mammalian expression vector harboring human IDO1 cDNA (NM 002164.2) by electroporation. They were cultured in medium (DMEM with 10% FBS) containing 1 mg/ml G418 for two weeks. Clones of HEK293 cells that stably expressed human IDO1 protein were selected and expanded for IDO inhibition assay.
The human IDO1/HEK293 cells were seeded at 10,000 cells per 50 μL per well with RPMI/phenol red free media contains 10% FBS in a 384-well black wall clear bottom tissue culture plate (Matrix Technologies LLC) 100 nL of certain concentration of compound was then added to each well using ECHO liquid handling systems. The cells were incubated for 20 hours in 37° C. incubator with 5% CO2.
The compound treatments were stopped by adding trichloroacetic acid (Sigma-Aldrich) to a final concentration at 0.2%. The cell plate was further incubated at 50° C. for 30 minute. The equal volume supernatant (20 μL) and 0.2% (w/v) Ehrlich reagent (4-dimethylaminobenzaldehyde, Sigma-Aldrich) in glacial acetic acid were mixed in a new clear bottom 384-well plate. This plate was then incubated at room temperature for 30 minute. The absorbance at 490 nm was measured on Envision plate reader.
Compound IC50 values were calculated using the counts of 500 nM of a reference standard treatment as one hundred percent inhibition, and counts of no compound but DMSO treatment as zero percent inhibition.

human IDO1, sequence (P14902 whole entry): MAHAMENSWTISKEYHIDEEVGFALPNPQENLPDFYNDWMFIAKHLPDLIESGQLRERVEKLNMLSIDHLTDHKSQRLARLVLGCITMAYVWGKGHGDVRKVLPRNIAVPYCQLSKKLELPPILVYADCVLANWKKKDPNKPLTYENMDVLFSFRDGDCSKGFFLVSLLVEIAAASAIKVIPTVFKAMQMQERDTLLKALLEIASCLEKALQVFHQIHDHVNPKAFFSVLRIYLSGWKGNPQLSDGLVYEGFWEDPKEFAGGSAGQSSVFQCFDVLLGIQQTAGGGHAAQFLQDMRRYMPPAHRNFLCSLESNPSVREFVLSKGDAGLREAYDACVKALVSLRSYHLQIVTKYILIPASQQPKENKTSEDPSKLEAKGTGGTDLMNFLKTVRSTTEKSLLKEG

## CC[C@H](CC(=O)O)c1ccc(N(CC)C2CCOCC2)c(Nc2ccc(C#N)cc2)c1 (single isomer, unassigned) [Example 501]
  IC50: < 5 nM

## CCOc1ncc(Nc2cc(C(C)(C)CC(=O)O)ccc2N(CC)C2CCC(C)(O)CC2)cn1 (centres unmarked) [Example 3, 3-(3-((2-ethoxypyrimidin-5-yl)amino)-4-(ethyl(4-hydroxy-4-methylcyclohexyl)amino)phenyl)-3-methylbutanoic acid]
  IC50: > 50 nM

## CC[C@@H](CC(=O)O)c1ccc(N2CCC[C@@H]2C(C)(C)O)c(Nc2ccc(C#N)cc2)c1 (single isomer, unassigned) [Example 771]
  IC50: < 50 nM

## COCC(CC(=O)O)c1cc(F)c(N(CC(C)C)C2CCCCC2)c(NC(=O)Nc2ccc(OC)cc2F)c1 (centres unmarked) [Example 1159, 3-(4-(cyclohexyl(isobutyl)amino)-3-fluoro-5-(3-(2-fluoro-4-methoxyphenyl)ureido)phenyl)-4-methoxybutanoic acid]
  IC50: < 5 nM

## CC[C@@H](CC(=O)O)c1ccc(N(CC)C2CCCCC2)c(Nc2ccc(C#N)cc2)c1 (single isomer, unassigned) [Example 283]
  IC50: < 5 nM

## CCC(CC(=O)O)c1ccc(N(CC(C)C)C2CCCCC2)c(NC(=O)Cc2ccc(Cl)cc2F)c1 (single isomer, unassigned) [Example 1096 E2]
  IC50: < 5 nM

## CCC(CC(=O)O)c1ccc(N(CC(C)C)C2CCCCC2)c(Nc2ccc(Cl)c(OCC(F)F)c2)c1 (single isomer, unassigned) [Example 643, 3-(3-((4-chloro-3-(2,2-difluoroethoxy)phenyl)amino)-4-(cyclohexyl (isobutyl)amino)phenyl) pentanoic acid]
  IC50: < 5 nM

## CCC(CC(=O)O)c1ccc(N2CCC[C@H]2C(C)(C)O)c(Nc2cnc(OCC3CC3)nc2)c1 (single isomer, unassigned) [Example 822]
  IC50: > 50 nM

## COCC(CC(=O)O)c1ccc(N(CC(C)C)C2CCCCC2)c(NC(=O)Nc2cncnc2)c1 (single isomer, unassigned) [991-1]
  IC50: < 50 nM

## CCCN(c1ccc([C@@H](CC)CC(=O)O)cc1Nc1ccc2nc(C)sc2c1)C1CCOCC1 (single isomer, unassigned) [Example 537]
  IC50: < 5 nM

## CCC(CC(=O)O)c1ccc(N2C[C@@H]3C[C@H]2CN3C(=O)OC(C)(C)C)c(Nc2ccc(C)cc2)c1 (single isomer, unassigned) [Example 447]
  IC50: < 50 nM

## CCC(CC(=O)O)c1ccc(N(CC(C)C)CC(C)(C)O)c(Nc2ccc3nc(C)sc3c2)c1 (racemic) [Example 452, 3-(4-((2-Hydroxy-2-methylpropyl)(isobutyl)amino)-3-((2-methylbenzo[d]thiazol-6-yl)amino)phenyl)pentanoic acid]
  IC50: > 50 nM

## CCCN(CC1CC1)c1ccc(C(CC)CC(=O)O)cc1Nc1cnc(OCC)nc1 (single isomer, unassigned) [Example 660, 3-(4-((cyclopropylmethyl)(propyl)amino)-3-((2-ethoxypyrimidin-5-yl)amino)phenyl)pentanoic acid]
  IC50: < 5 nM

## CCC(CC(=O)O)c1ccc(N(CC)C2CCCOC2)c(Nc2cnc(OC)nc2)c1 (single isomer, unassigned) [Example 71, 3-(4-(ethyl(tetrahydro-2H-pyran-3-yl)amino)-3-((2-methoxypyrimidin-5-yl)amino)phenyl)pentanoic acid]
  IC50: < 50 nM

## COCC(CC(=O)O)c1ccc(N(CC(C)C)C2CCCCC2)c(NC(=O)Nc2ccc(Cl)cc2F)c1 (racemic) [Example 984, (+/−)-3-(3-(3-(4-Chloro-2-fluorophenyl)ureido)-4-(cyclohexyl(isobutyl)amino)phenyl)-4-methoxybutanoic acid]
  IC50: < 5 nM

## CCC(CC(=O)O)c1ccc(N2CCC[C@H]2C(C)(C)O)c(NC(=O)Nc2ccc(OC)cc2)c1 (single isomer, unassigned) [Example 811]
  IC50: > 50 nM

## CCc1ccc(Nc2cc(C(CC)CC(=O)O)cc(F)c2N(CC(C)C)CC(C)C)cc1 (single isomer, unassigned) [Example 96, 3-(4-(diisobutylamino)-3-((4-ethylphenyl)amino)-5-fluorophenyl)pentanoic acid]
  IC50: < 50 nM

## CCN(c1ccc([C@@H](COC)CC(=O)O)cc1NC(=O)Nc1ccc(OC)cc1F)C1CCOCC1 (single isomer, unassigned) [Example 424]
  IC50: > 50 nM

## CCc1ccc(Nc2cc([C@H](CC)CC(=O)O)ccc2N(CC(C)(C)O)C2CCCCC2)cc1 (single isomer, unassigned) [Example 239]
  IC50: < 50 nM

## COCC(CC(=O)O)c1ccc(N(CC2CC2)C2CCOCC2)c(Nc2ccc(Cl)c(OCC(F)F)c2)c1 (single isomer, unassigned) [Example 684, 3-(3-((4-chloro-3-(2,2-difluoroethoxy)phenyl)amino)-4-((cyclopropylmethyl) (tetrahydro-2H-pyran-4-yl)amino)phenyl)-4-methoxybutanoic acid]
  IC50: < 50 nM

## CC(CC(=O)O)c1ccc(N2C[C@@H](C)O[C@@H](C)C2)c(Nc2ccc(Cl)cc2)c1 (single isomer, unassigned) [Example 739]
  IC50: > 50 nM

## CC[C@@H](CC(=O)O)c1ccc(N(CC)C2CCOCC2)c(Nc2ccc3c(c2)OCCO3)c1 (single isomer, unassigned) [Example 486]
  IC50: > 50 nM

## COCC(CC(=O)O)c1ccc(N(CC2CC2)C2CCOCC2)c(Nc2ccc(Cl)cc2)c1 (single isomer, unassigned) [Example 690, 3-(3-((4-chlorophenyl)amino)-4-((cyclopropylmethyl) (tetrahydro-2H-pyran-4-yl)amino)phenyl)-4-methoxybutanoic acid]
  IC50: > 50 nM

## CC(C)CN(c1ccc(C(CC(=O)O)C2CC2)cc1NC(=O)Nc1ccc(Cl)cc1F)C1CCOCC1 (single isomer, unassigned) [Example 1199 Enantiomer 1, 3-(3-(3-(4-Chloro-2-fluorophenyl)ureido)-4-(isobutyl(tetrahydro-2H-pyran-4-yl)amino)phenyl)-3-cyclopropylpropanoic acid]
  IC50: < 5 nM

## CCC(CC(=O)O)c1ccc(N(CC2CC2)C2CCOCC2)c(Nc2ccc(Cl)cc2)c1 (single isomer, unassigned) [Example 702, 3-(3-((4-chlorophenyl)amino)-4-((cyclopropylmethyl) (tetrahydro-2H-pyran-4-yl)amino)phenyl)pentanoic acid]
  IC50: < 5 nM

## CCOc1ccc(NC(=O)Nc2cc(C(COC)CC(=O)O)ccc2N(CC(C)C)C2CCOCC2)cc1 (single isomer, unassigned) [Example 1212, 3-(3-(3-(4-Ethoxyphenyl)ureido)-4-(isobutyl(tetrahydro-2H-pyran-4-yl)amino)phenyl)-4-methoxybutanoic acid]
  IC50: > 50 nM

## COCC(CC(=O)O)c1cc(F)c(N(CC(C)C)C2CCCCC2)c(NC(=O)Nc2cc(C)on2)c1 (single isomer, unassigned) [Example 1167, 3-(4-(cyclohexyl(isobutyl)amino)-3-fluoro-5-(3-(5-methylisoxazol-3-yl)ureido)phenyl)-4-methoxybutanoic acid]
  IC50: < 5 nM

## CCN(c1ccc([C@@H](COC)CC(=O)NS(C)(=O)=O)cc1Nc1ccc(C#N)cc1)C1CCOCC1 (stereo in doubt) [Example 1077, 3-(3-((4-Cyanophenyl)amino)-4-(ethyl(tetrahydro-2H-pyran-4-yl)amino)phenyl)-4-methoxy-N-(methylsulfonyl)butanamide]
  IC50: < 50 nM

## Cc1ccc(NC(=O)Nc2cc(C(CC(=O)O)C3CC3)ccc2N(CC(C)C)C2CCOCC2)cc1 (racemic) [Example 1202, (+/−)-3-Cyclopropyl-3-(4-(isobutyl(tetrahydro-2H-pyran-4-yl)amino)-3-(3-(p-tolyl)ureido)phenyl)propanoic acid]
  IC50: < 5 nM

## CCc1cnc(Nc2cc([C@H](CC)CC(=O)O)ccc2N(CC(C)(C)O)C2CCCCC2)nc1 (single isomer, unassigned) [Example 241]
  IC50: < 50 nM

## COCC(CC(=O)O)c1ccc(N(CC(C)C)C2CCCCC2)c(NC(=O)Nc2cc(C)on2)c1 (racemic) [Example 986, (+/−)-3-(4-(Cyclohexyl(isobutyl)amino)-3-(3-(5-methylisoxazol-3-yl)ureido)phenyl)-4-methoxybutanoic acid]
  IC50: < 50 nM

## COCC(CC(=O)OC)c1ccc(N(CC(C)C)C2CCC(OC)CC2)c(NC(=O)Nc2ccc(C)cc2)c1 (racemic) [Example 1005, (+/−)-Methyl 3-(4-(isobutyl((1R,4R)-4-methoxycyclohexyl)amino)-3-(3-(p-tolyl)ureido)phenyl)-4-methoxybutanoate]
  IC50: > 50 nM

## COCC(CC(=O)O)c1cc(F)c(N(CC(C)C)CC(C)C)c(NC(=O)Nc2ccc(OC(F)(F)F)cc2)c1 (single isomer, unassigned) [Example 1192, 3-(4-(Diisobutylamino)-3-fluoro-5-(3-(4-(trifluoromethoxy)phenyl)ureido)phenyl)-4-methoxybutanoic acid]
  IC50: < 50 nM

## CCC(CC(=O)O)c1ccc(N2CCC[C@H]2C(C)(C)F)c(Nc2ccc3nc(C)sc3c2)c1 (single isomer, unassigned) [Example 789]
  IC50: > 50 nM

## CCC(CC(=O)O)c1cc(F)c(N(CC(C)C)CC(C)C)c(NC(=O)Nc2ccc(C)c(F)c2)c1 (racemic) [Example 974, (+/−)-3-(4-(diisobutylamino)-3-fluoro-5-(3-(3-fluoro-4-methylphenyl)ureido)phenyl)pentanoic acid]
  IC50: < 50 nM
